Test results from patent publication US6307014A (priority 1998, dated 2001).

Tests used:
[1] = test system: postsynaptic acetylcholine (ACh) receptors; type: cell-based, Aplysia californica
[2] = test system: cholinergic synapse of the buccal ganglion; type: cell-based, Aplysia californica
[3] = test system: presynaptic Ca2+ current; type: cell-based, Aplysia californica
[4] = test system: young mice; conditions: mouse, in vivo

Gla Cys Cys Gla Asp Gly BrW Cys Cys Thr Ala Ala OHP [P11.1]
distribution of mean amplitudes of miniature postsynaptic currents with respect to mean amplitude of the LDIPSC [1]: identical to control values
effect on postsynaptic acetylcholine (ACh) receptors [1]: no effect
amplitude of the postsynaptic response (IPSC) evoked by a presynaptic action potential, % of the initial value [2]: 40%
reduction in the number of released quanta [2]: 60%
presynaptic Ca2+ current, % of the control value [3]: 70%
dampening of the action potential [4]: about 50%
